{"source": "patent US20100137138A1", "about": "“HERBICIDE/SAFENER COMBINATION” (BAYER CROPSCIENCE AG, priority 2008, published 2010)", "type_in_all_cases": "in vivo", "key": {"Corn (Aventura) [1]": {"test_system": "Corn (Aventura)", "assay": "Post-emergence herbicidal effect and safener effect, Corn (Aventura)", "conditions": "herbicide dosage 50 g a.i./ha, visual scoring vs untreated controls", "description": "(§1) Seeds or rhizome pieces of mono- and dicotyledonous harmful plants and of crop plants are planted in peat pots in sandy loam, covered with earth and grown in a greenhouse under good growth conditions. Alternatively to this, harmful plants occurring in the paddy rice cultivation are cultivated in pots in which water stands up to 2 cm above the soil surface. 10 to 20 days after sowing, the test plants are treated in the one to three-leaf stage. The herbicide/safener active ingredient combinations according to the invention, formulated as water-soluble powders or suspensions, and, in parallel experiments, the correspondingly formulated individual active ingredients are sprayed onto the green plant parts in various dosages using an application rate of 300 l of water/ha (converted) and, after the test plants have remained in the greenhouse under optimum growth conditions for 2-3 weeks, the effect of the preparations is scored visually in comparison with untreated controls. In the case of rice or in the case of harmful plants which occur in the rice cultivation, the active ingredients are also placed directly into the irrigation water (application analogous to the so-called granules application) or sprayed onto plants and into the irrigation water."}, "Barley (Adonis)": {"test_system": "Barley (Adonis)", "assay": "Post-emergence herbicidal effect and safener effect, Barley (Adonis)", "conditions": "herbicide dosage 25 g a.i./ha, visual scoring vs untreated controls", "description": "as §1"}, "Rice (Ballila)": {"test_system": "Rice (Ballila)", "assay": "Post-emergence herbicidal effect and safener effect, Rice (Ballila)", "conditions": "herbicide dosage 100 g a.i./ha, visual scoring vs untreated controls", "description": "as §1"}, "Wheat (Triso)": {"test_system": "Wheat (Triso)", "assay": "Pre-emergence herbicidal effect and safener effect, Wheat (Triso)", "conditions": "herbicide dosage 100 g a.i./ha, visual scoring vs untreated controls", "text": "(§2) Seeds or rhizome pieces of mono- and dicotyledonous weed plants and crop plants were planted in peat pots in sandy loam and covered with earth. The herbicide/safener active ingredient combinations according to the invention, formulated as water-soluble powders or suspensions, and, in parallel experiments, the correspondingly formulated individual active ingredients were then applied to the surface of the covering earth at an application rate of 600 to 800 l of water/ha (converted) in a variety of dosages.\n(§3) After the treatment, the pots were placed in the greenhouse and kept under good growth conditions for the weeds and the crop plants. Visual scoring of the plant damage or emergence damage was carried out after the test plants had emerged after a test period of 2 to 4 weeks, in comparison with untreated controls."}, "Corn (Aventura) [2]": {"test_system": "Corn (Aventura)", "assay": "Pre-emergence herbicidal effect and safener effect, Corn (Aventura)", "conditions": "herbicide dosage 100 g a.i./ha, visual scoring vs untreated controls", "text": "as §2, §3"}}}
{"smiles": "COC(=O)c1nc(-c2ccc(Cl)c(OC)c2F)nc(N)c1Cl", "note": "[Compound I-272]", "values": [{"measurement": "% Effect (without safener)", "setting": "Corn (Aventura) [1]", "result": 70, "unit": "%"}, {"measurement": "% Effect (without safener)", "setting": "Barley (Adonis)", "result": 20, "unit": "%"}, {"measurement": "% Effect (without safener)", "setting": "Rice (Ballila)", "result": 70, "unit": "%"}, {"measurement": "% Effect (without safener)", "setting": "Wheat (Triso)", "result": 30, "unit": "%"}, {"measurement": "% Effect (without safener)", "setting": "Corn (Aventura) [2]", "result": 70, "unit": "%"}]}
